In the NIST ThermoML archive (doi:10.1016/j.jct.2007.09.007):

Assay: xn = mol fraction of the nth substance listed
Details: 100 kPa, Liquid

C1COCCO1 [1,4-dioxane] + CC#N
mass density [kg/m3]
Details | 288.15 K | 293.15 K | 298.15 K | 303.15 K
x1 = 0.0046 | 789.4 | 784.08 | 778.69 | 773.26
x1 = 0.0101 | 791.73 | 786.38 | 780.98 | 775.56
x1 = 0.0249 | 797.92 | 792.61 | 787.21 | 781.78
x1 = 0.0336 | 801.42 | 796.07 | 790.67 | 785.24
x1 = 0.0497 | 808.04 | 802.72 | 797.32 | 791.89
x1 = 0.0627 | 813.27 | 807.95 | 802.55 | 797.13
x1 = 0.1106 | 831.43 | 826.1 | 820.71 | 815.28
x1 = 0.1643 | 850.48 | 845.16 | 839.75 | 834.33
x1 = 0.2127 | 866.78 | 861.44 | 856.05 | 850.62
x1 = 0.2853 | 889.43 | 884.08 | 878.67 | 873.24
x1 = 0.3355 | 904 | 898.64 | 893.23 | 887.8
x1 = 0.4341 | 930.27 | 924.89 | 919.46 | 914.02
x1 = 0.4807 | 941.65 | 936.29 | 930.86 | 925.4
x1 = 0.5277 | 952.67 | 947.29 | 941.85 | 936.38
x1 = 0.5828 | 964.93 | 959.51 | 954.06 | 948.58
x1 = 0.6385 | 976.54 | 971.14 | 965.66 | 960.16
x1 = 0.6845 | 985.67 | 980.25 | 974.76 | 969.25
x1 = 0.7278 | 993.97 | 988.54 | 983.03 | 977.5
x1 = 0.777 | 1002.84 | 997.35 | 991.82 | 986.28
x1 = 0.8181 | 1010.08 | 1004.61 | 999.06 | 993.5
x1 = 0.8703 | 1018.77 | 1013.28 | 1007.7 | 1002.12
x1 = 0.9145 | 1025.86 | 1020.33 | 1014.73 | 1009.11
x1 = 0.9604 | 1032.84 | 1027.29 | 1021.66 | 1016.03
x1 = 0.9652 | 1033.57 | 1027.98 | 1022.35 | 1016.71
x1 = 0.9757 | 1035.18 | 1029.58 | 1023.93 | 1018.3
x1 = 0.9817 | 1036.07 | 1030.46 | 1024.82 | 1019.17
x1 = 0.99 | 1037.29 | 1031.66 | 1025.99 | 1020.36
x1 = 0.9954 | 1038.08 | 1032.48 | 1026.83 | 1021.18

CC(C)OC(C)C [diisopropyl ether] + CC#N
mass density [kg/m3]
Details | 288.15 K | 293.15 K | 298.15 K | 303.15 K
x1 = 0.0072 | 786.61 | 781.29 | 775.9 | 770.47
x1 = 0.015 | 785.8 | 780.49 | 775.1 | 769.68
x1 = 0.0247 | 784.84 | 779.54 | 774.15 | 768.74
x1 = 0.0308 | 784.29 | 778.97 | 773.59 | 768.17
x1 = 0.0381 | 783.55 | 778.25 | 772.87 | 767.46
x1 = 0.0482 | 782.56 | 777.27 | 771.89 | 766.48
x1 = 0.0991 | 777.78 | 772.47 | 767.11 | 761.72
x1 = 0.1496 | 773.32 | 768.06 | 762.72 | 757.34
x1 = 0.2511 | 765.5 | 760.24 | 754.91 | 749.55
x1 = 0.3069 | 761.73 | 756.5 | 751.18 | 745.83
x1 = 0.3507 | 758.83 | 753.58 | 748.27 | 742.93
x1 = 0.4104 | 755.28 | 750.02 | 744.74 | 739.4
x1 = 0.4513 | 752.87 | 747.67 | 742.35 | 737.04
x1 = 0.5132 | 749.57 | 744.35 | 739.06 | 733.73
x1 = 0.56 | 747.13 | 741.91 | 736.63 | 731.3
x1 = 0.6429 | 743.32 | 738.15 | 732.87 | 727.55
x1 = 0.6938 | 741.1 | 735.9 | 730.64 | 725.33
x1 = 0.76 | 738.32 | 733.12 | 727.83 | 722.53
x1 = 0.8129 | 736.2 | 731.02 | 725.76 | 720.46
x1 = 0.8449 | 735 | 729.8 | 724.53 | 719.26
x1 = 0.904 | 732.62 | 727.46 | 722.22 | 716.94
x1 = 0.9509 | 730.9 | 725.75 | 720.52 | 715.25
x1 = 0.963 | 730.42 | 725.28 | 720.05 | 714.78
x1 = 0.9685 | 730.2 | 725.06 | 719.83 | 714.56
x1 = 0.9815 | 729.68 | 724.52 | 719.32 | 714.06
x1 = 0.9887 | 729.4 | 724.27 | 719.05 | 713.79
x1 = 0.9945 | 729.15 | 724.02 | 718.81 | 713.55

C1CCOC1 [tetrahydrofuran] + CC#N
mass density [kg/m3]
Details | 288.15 K | 293.15 K | 298.15 K | 303.15 K
x1 = 0.0053 | 788.34 | 783 | 777.57 | 772.17
x1 = 0.0104 | 789.18 | 783.84 | 778.44 | 773.01
x1 = 0.0197 | 790.72 | 785.35 | 779.94 | 774.52
x1 = 0.0294 | 792.28 | 786.96 | 781.56 | 776.11
x1 = 0.0389 | 793.83 | 788.5 | 783.1 | 777.67
x1 = 0.0993 | 803.2 | 797.8 | 792.41 | 786.97
x1 = 0.1598 | 812.11 | 806.78 | 801.3 | 795.84
x1 = 0.1978 | 817.43 | 812.02 | 806.63 | 801.18
x1 = 0.2441 | 823.65 | 818.27 | 812.84 | 807.39
x1 = 0.2845 | 828.9 | 823.5 | 818.1 | 812.64
x1 = 0.3445 | 836.2 | 830.81 | 825.36 | 819.91
x1 = 0.4022 | 842.91 | 837.51 | 832.02 | 826.57
x1 = 0.4545 | 848.62 | 843.24 | 837.79 | 832.34
x1 = 0.4995 | 853.35 | 847.94 | 842.49 | 837.08
x1 = 0.5298 | 856.4 | 851.03 | 845.55 | 840.1
x1 = 0.5552 | 858.94 | 853.51 | 848.07 | 842.6
x1 = 0.6054 | 863.65 | 858.25 | 852.78 | 847.29
x1 = 0.6405 | 866.78 | 861.42 | 855.96 | 850.47
x1 = 0.6603 | 868.52 | 863.15 | 857.69 | 852.2
x1 = 0.6976 | 871.74 | 866.29 | 860.83 | 855.34
x1 = 0.747 | 875.76 | 870.32 | 864.86 | 859.36
x1 = 0.8003 | 879.84 | 874.36 | 868.9 | 863.41
x1 = 0.8179 | 881.06 | 875.68 | 870.22 | 864.73
x1 = 0.8537 | 883.67 | 878.23 | 872.77 | 867.28
x1 = 0.8975 | 886.63 | 881.19 | 875.76 | 870.25
x1 = 0.9502 | 890 | 884.59 | 879.13 | 873.61
x1 = 0.9671 | 890.93 | 885.55 | 880.09 | 874.59
x1 = 0.9745 | 891.4 | 886.03 | 880.56 | 875.07
x1 = 0.9854 | 892.01 | 886.65 | 881.17 | 875.7
x1 = 0.9877 | 892.14 | 886.76 | 881.29 | 875.8
x1 = 0.994 | 892.51 | 887.12 | 881.66 | 876.13
